# From publication PMC8217813, “Bridging Computational Vaccinology and Vaccine Development Through Systematic Identification, Characterization, and Downselection of Conserved and Variable Circumsporozoite Protein CD4 T Cell Epitopes From Diverse Plasmodium falciparum Strains” (Frontiers in Immunology, 2021)
# Read-outs that look alike come from different tables or passages of the source. Peptide text beside a SMILES is read from it.
# Experiments:
# HLA-DRB1*1501 = biological target: T1, HLA-DRB1*1501 (Homo sapiens, UniProt P01903+P01911); experiment: In vitro class II HLA binding competition assay; conditions: competition with fluorescent-labeled reference peptide, class II HLA monomers, 24-hours, test peptide 100,000 nM to 100 nM, time-resolved fluorescence; read-out: IC50, DRB1*1501
# T1 construct: purchased
# Description: (§1) EpiVax conducted in vitro quantification of peptide-HLA binding affinity utilizing a competition assay format per the methodology described in ([35]). Briefly, a fluorescent-labeled, high-binding reference peptide and titrating concentrations of test peptide were incubated in a 96-well plate format with limiting concentrations of class II HLA monomers in aqueous buffer for 24-hours. Post incubation, the mixtures were moved to a 96-well plate coated with anti-HLA-DR antibody to capture HLA-peptide complexes. Time-resolved fluorescence measurement of the bound labeled reference peptide complex present in each mixture were detected with a europium-linked probe via fluorescent spectrophotometry using a SpectraMax M5 system. HLA binding affinity of each test peptide was expressed as the percent inhibition of reference peptide binding. Percent inhibition values (across the test peptide titration range) were used to calculate the half maximal inhibitory concentration (IC50) of each test peptide. For these studies, test peptides were assessed using a range of final concentrations from 100,000 nM to 100 nM and all peptides were reconstituted in dimethyl sulfoxide (DMSO).
# HLA-DRB1*0101 = biological target: T2, HLA-DRB1*0101 (Homo sapiens, UniProt P01903+P01911, A100R/D57E/F55L/F60I/F76Y/I96L/L162R/M171V/P40L/Q125E/R42F/V115G/Y59C); experiment: In vitro class II HLA binding competition assay; conditions: competition with fluorescent-labeled reference peptide, class II HLA monomers, 24-hours, test peptide 100,000 nM to 100 nM, time-resolved fluorescence
# T2 construct: purchased
# Description: as §1
# HLA-DRB1*0701 = HLA-DRB1*0701 (Homo sapiens, UniProt P01903+P01911, A100R/A102G/A103Q/D57E/D86V/E43K/F76Y/K127E/L162R/M171V/P40G/Q125H/Q99D/R33Q/R42Y/R54Q/S133A/S66F/T210M/V115G/Y107V/Y59L/Y89S); experiment: In vitro class II HLA binding competition assay; conditions: competition with fluorescent-labeled reference peptide, class II HLA monomers, 24-hours, test peptide 100,000 nM to 100 nM, time-resolved fluorescence; read-out: IC50, DRB1*0701
# Description: as §1
# HLA A*0201 = biological target: T3, HLA A*0201 (Homo sapiens, UniProt P04439, D140Y/D185E/D98H/E176V/E277Q/G131W/G231S/I119V/I121R/I166T/I218V/L300P/L318F/N151K/N90K/P208A/P217A/Q86G/Q94H/R138H/R169H/T345S); experiment: biochemical; assay type: binding
# T3 construct: Pure Protein, LLC (ran the assay)
# HLA B*0702 = biological target: T4, HLA B*0702 (Homo sapiens, UniProt P01889); experiment: biochemical; assay type: binding; conditions: allele B0702; cell-free competition with fluorescently labeled control peptide, fluorescence polarization at 72 hours
# T4 construct: Pure Protein, LLC (ran the assay)
compound,measurement,setting,value
CC(C)C[C@H](NC(=O)[C@@H](NC(=O)[C@H](CCCNC(=N)N)NC(=O)[C@@H](NC(=O)[C@H](CC(N)=O)NC(=O)[C@H](CO)NC(=O)[C@H](CO)NC(=O)[C@H](CO)NC(=O)CNC(=O)[C@H](Cc1ccc(O)cc1)NC(=O)[C@H](CS)NC(=O)[C@H](CCC(N)=O)NC(=O)[C@H](Cc1ccc(O)cc1)NC(=O)[C@H](CCC(=O)O)NC(=O)[C@H](CCC(N)=O)NC(=O)[C@H](Cc1ccccc1)NC(=O)[C@H](CCCCN)NC(=O)[C@@H](N)CCCCN)[C@@H](C)O)C(C)C)C(=O)N[C@@H](CC(N)=O)C(=O)N[C@@H](CCC(=O)O)C(N)=O [Cluster C1] (H-KKFQEYQCYGSSSNTRVLNE-NH2),IC50,HLA-DRB1*1501,1.77 µM
same,IC50,HLA-DRB1*0101,50.1 µM
same,IC50,HLA-DRB1*0701,36.7 µM
CKMEKCSSV [369_3D7 (9)],IC50 (nM),"HLA A*0201; allele A0201, cell-free competition with fluorescently labeled control peptide, fluorescence polarization at 72 hours",Non-Binder
CC[C@H](C)[C@H](NC(=O)[C@H](CCCCN)NC(=O)[C@H](CCCCN)NC(=O)[C@H](CC(C)C)NC(=O)[C@@H](N)Cc1ccc(O)cc1)C(=O)N[C@@H](CCC(N)=O)C(=O)N[C@@H](Cc1ccc(O)cc1)C(=O)N[C@@H](CO)C(=O)N[C@@H](CC(C)C)C(=O)O [Cluster 319_ICS7] (H-YLKKIQYSL-OH),IC50,HLA A*0201,2.58 µM
CC[C@H](C)[C@H](NC(=O)CNC(=O)[C@H](CC(N)=O)NC(=O)CNC(=O)[C@H](CS)NC(=O)[C@@H](NC(=O)[C@@H](NC(=O)[C@@H](N)CO)C(C)C)[C@@H](C)O)C(=O)N[C@@H](CCC(N)=O)C(=O)N[C@H](C(=O)O)C(C)C [Cluster 335_3D7] (H-SVTCGNGIQV-OH),IC50 (nM),HLA B*0702,Non-Binder
same,IC50,"HLA A*0201; allele A0201, cell-free competition with fluorescently labeled control peptide, fluorescence polarization at 72 hours, read-out: IC50",489 µM
